Data: ChEMBL document CHEMBL1221184, “Identifying off-target effects and hidden phenotypes of drugs in human cells” (Nat Chem Biol, 2006)
Calls of active or inactive are those of the source. No cut-off for these calls is given here.

Tests used:
PC-3 [1] = test: Antiproliferative activity against human PC3 cells at 10 uM after 120 hrs by MTT assay relative to DMSO; format: functional
PC-3 [2] = test: Antiproliferative activity against human PC3 cells at 100 nM after 120 hrs by MTT assay relative to DMSO; format: functional
PC-3 [3] = test: Antiproliferative activity against human PC3 cells at 30 uM after 120 hrs by MTT assay relative to DMSO; format: functional
PC-3 [4] = test: Antiproliferative activity against human PC3 cells at 5 uM after 120 hrs by MTT assay relative to DMSO; format: functional
PC-3 [5] = test: Antiproliferative activity against human PC3 cells at 2 uM after 120 hrs by MTT assay relative to DMSO; format: functional
PC-3 [6] = test: Antiproliferative activity against human PC3 cells at 50 uM after 120 hrs by MTT assay relative to DMSO; format: functional
PC-3 [7] = test: Antiproliferative activity against human PC3 cells at 500 nM after 120 hrs by MTT assay relative to DMSO; format: functional
[8] = target: Cyclin-dependent kinase 1 (Homo sapiens) (UniProt P06493); test: Effect on Cdc2 expressed in HEK293 cells assessed as effect on Cdc2:Cdc25C interaction complexes in presence of camptothecin by EYFP and/or YFP Venus fragment based reporter gene assay; format: cell-based
Chain of Cyclin-dependent kinase 1 (Homo sapiens) (P06493 whole entry, looked up, the tested form may be a part): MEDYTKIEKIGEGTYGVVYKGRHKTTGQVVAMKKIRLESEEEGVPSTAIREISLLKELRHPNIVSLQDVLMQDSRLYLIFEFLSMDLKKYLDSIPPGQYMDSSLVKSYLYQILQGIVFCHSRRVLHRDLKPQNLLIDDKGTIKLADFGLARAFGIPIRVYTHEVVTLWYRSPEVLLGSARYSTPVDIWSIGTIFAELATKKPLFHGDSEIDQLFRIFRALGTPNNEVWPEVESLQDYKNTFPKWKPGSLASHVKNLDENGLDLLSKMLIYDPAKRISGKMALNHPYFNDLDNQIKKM

PC-3 [9] = test: Antiproliferative activity against human PC3 cells at 25 uM after 120 hrs by MTT assay relative to DMSO; format: functional
[10] = target: Transcription factor Jun (Homo sapiens) (UniProt P05412); test: Activation of c-Jun expressed in HEK293 cells assessed as induction of protein interaction with Pin1 by EYFP based reporter gene assay; format: cell-based
Chain of Transcription factor Jun (Homo sapiens) (P05412 whole entry, the tested form may be a part): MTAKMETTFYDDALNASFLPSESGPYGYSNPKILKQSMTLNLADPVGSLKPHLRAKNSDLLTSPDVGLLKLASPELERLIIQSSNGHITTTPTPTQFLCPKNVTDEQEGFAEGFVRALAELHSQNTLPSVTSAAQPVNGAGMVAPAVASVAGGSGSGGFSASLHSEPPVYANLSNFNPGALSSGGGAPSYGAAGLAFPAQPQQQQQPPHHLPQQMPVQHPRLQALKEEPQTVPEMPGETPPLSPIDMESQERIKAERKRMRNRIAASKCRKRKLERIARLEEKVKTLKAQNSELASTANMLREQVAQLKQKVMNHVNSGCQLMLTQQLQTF

PC-3 [11] = test: Antiproliferative activity against human PC3 cells at 1 uM after 120 hrs by MTT assay relative to DMSO; format: functional
[12] = target: Cyclin-dependent kinase 1 (Homo sapiens) (UniProt P06493); test: Effect on Cdc2 expressed in HEK293 cells assessed as effect on Cdc2:Cdc25A interaction complexes in presence of camptothecin by EYFP and/or YFP Venus fragment based reporter gene assay; format: cell-based
[13] = target: Transcription factor Jun (Homo sapiens) (UniProt P05412); test: Inhibition of c-Jun expressed in HEK293 cells assessed as induction of protein interaction in presence of camptothecin with Pin1 by EYFP based reporter gene assay; format: cell-based
Cofilin-1 (Homo sapiens) = Cofilin-1 (Homo sapiens) (UniProt P23528); test: Effect on cofilin1 expressed in HEK293 cells assessed as effect on cofilin1; Limk2 interaction complexes in presence of camptothecin by EYFP and/or YFP Venus fragment based reporter gene assay; format: cell-based
Chain of Cofilin-1 (Homo sapiens) (P23528 whole entry, the tested form may be a part): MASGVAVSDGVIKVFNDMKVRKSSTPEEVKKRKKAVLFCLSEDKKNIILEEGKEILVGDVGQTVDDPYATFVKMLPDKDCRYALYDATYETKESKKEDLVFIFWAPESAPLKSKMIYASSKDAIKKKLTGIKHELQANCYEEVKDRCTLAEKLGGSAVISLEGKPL

CCCCCCCCCCCCC/C=C/[C@H](O)[C@@H](CO)NC(C)=O [ACETYL CERAMIDE]
fold change (FC) (PC-3 [1]): 0.787

C/C(=C\c1csc(C)n1)[C@@H]1C[C@@H]2O[C@@H]2CCC[C@H](C)[C@H](O)[C@@H](C)C(=O)C(C)(C)[C@@H](O)CC(=O)O1 [EPOTHILONE A]
fold change (FC) (PC-3 [2]): 0.291

COCc1c(C(C)C)nc(C(C)C)c(/C=C/[C@@H](O)C[C@@H](O)CC(=O)O)c1-c1ccc(F)cc1 [CERIVASTATIN]
fold change (FC) (PC-3 [3]): 0.254

Fc1ccc([C@@H]2CCNC[C@H]2COc2ccc3c(c2)OCO3)cc1 [PAROXETINE]
fold change (FC) (PC-3 [1]): 0.328

COc1cc2ncc(-c3ccccc3)nc2cc1OC
fold change (FC) (PC-3 [4]): 0.94

CN1CCN(C2=Nc3cc(Cl)ccc3Nc3ccccc32)CC1 [CLOZAPINE]
fold change (FC) (PC-3 [5]): 0.977

CC(C)NCC(O)COc1cccc2ccccc12 (configuration not stated) [PROPRANOLOL]
fold change (FC) (PC-3 [5]): 0.986

CS(=O)(=O)c1ccc(C2=C(c3ccccc3)C(=O)OC2)cc1 [ROFECOXIB]
fold change (FC) (PC-3 [1]): 1.08

Cc1ccc(NC(=O)c2ccc(CN3CCN(C)CC3)cc2)cc1Nc1nccc(-c2cccnc2)n1 [IMATINIB]
fold change (FC) (PC-3 [1]): 0.5

Cc1ccc(NC(=O)c2cccc(N(C)C)c2)cc1NC(=O)c1ccc(O)cc1
fold change (FC) (PC-3 [4]): 0.97

CC(C)c1c(C(=O)Nc2ccccc2)c(-c2ccccc2)c(-c2ccc(F)cc2)n1CC[C@@H](O)C[C@@H](O)CC(=O)O [ATORVASTATIN]
fold change (FC) (PC-3 [3]): 0.264

CC(C)c1nc(N(C)S(C)(=O)=O)nc(-c2ccc(F)cc2)c1/C=C/[C@@H](O)C[C@@H](O)CC(=O)O [ROSUVASTATIN]
fold change (FC) (PC-3 [3]): 0.491

O=c1cc(-c2ccc(O)cc2)oc2cc(O)cc(O)c12 [APIGENIN]
fold change (FC) (PC-3 [6]): 0.552

CC(O)(CS(=O)(=O)c1ccc(F)cc1)C(=O)Nc1ccc(C#N)c(C(F)(F)F)c1 (configuration not stated) [BICALUTAMIDE]
fold change (FC) (PC-3 [7]): 1.005

CC(C)NCC(O)c1ccc(O)c(O)c1 (configuration not stated) [ISOPROTERENOL]
fold change (FC) (PC-3 [5]): 0.955

CC(C)C[C@H](NC(=O)c1ccc(NCc2c[nH]cn2)cc1-c1cccc2ccccc12)C(=O)O
fold change (FC) (PC-3 [4]): 0.966

CC[C@H](C)C(=O)O[C@H]1CCC=C2C=C[C@H](C)[C@H](CC[C@@H]3C[C@@H](O)CC(=O)O3)[C@H]21 [MEVASTATIN]
fold change (FC) (PC-3 [3]): 0.243

CC[C@@]1(O)C(=O)OCc2c1cc1n(c2=O)Cc2cc3ccccc3nc2-1 [CAMPTOTHECIN]
fold change (FC) (PC-3 [7]): 0.258

NC1=NC(=O)/C(=C2/CCNC(=O)c3[nH]ccc32)N1
fold change (FC) (PC-3 [4]): 1.007

Cc1ccc(S(=O)(=O)/C=C/C#N)cc1
fold change (FC) (PC-3 [1]): 0.231 | Activity [8]: Active

O=c1cc(N2CCOCC2)oc2c(-c3ccccc3)cccc12 [LY-294002]
fold change (FC) (PC-3 [9]): 0.33

C[C@]12CC[C@@H]3c4ccc(O)cc4CC[C@H]3[C@@H]1CC[C@@H]2O [ESTRADIOL]
fold change (FC) (PC-3 [7]): 0.997

c1ccc([C@H]2CN3CCSC3=N2)cc1 [LEVAMISOLE]
fold change (FC) (PC-3 [1]): 1.028

O=C1Cc2cc(CCN3CCN(c4nsc5ccccc45)CC3)c(Cl)cc2N1 [ZIPRASIDONE]
fold change (FC) (PC-3 [5]): 1.017

CC[C@H](C)C(=O)O[C@H]1C[C@H](O)C=C2C=C[C@H](C)[C@H](CC[C@@H](O)C[C@@H](O)CC(=O)O)[C@H]21 [PRAVASTATIN]
fold change (FC) (PC-3 [3]): 1.098

CN(C)CCOc1ccc(/C(=C(/CCCl)c2ccccc2)c2ccccc2)cc1 [TOREMIFENE]
fold change (FC) (PC-3 [7]): 1.001

CC(C)(C)c1ccc(C(O)CCCN2CCC(C(O)(c3ccccc3)c3ccccc3)CC2)cc1 (configuration not stated) [TERFENADINE]
fold change (FC) (PC-3 [1]): 0.212

CC(C)(Oc1ccc(C2CC2(Cl)Cl)cc1)C(=O)O (configuration not stated) [CIPROFIBRATE]
fold change (FC) (PC-3 [3]): 1.047 | Activity [10]: Active

CCC(C)(C)C(=O)O[C@H]1C[C@@H](C)C=C2C=C[C@H](C)[C@H](CC[C@@H]3C[C@@H](O)CC(=O)O3)[C@H]21 [SIMVASTATIN]
fold change (FC) (PC-3 [3]): 0.239

O=S(=O)(NCCNC/C=C/c1ccc(Br)cc1)c1cccc2cnccc12
fold change (FC) (PC-3 [5]): 1.028

CC(C)n1c(/C=C/C(O)CC(O)CC(=O)O)c(-c2ccc(F)cc2)c2ccccc21 (configuration not stated) [FLUVASTATIN]
fold change (FC) (PC-3 [3]): 0.255

CNc1cc2c(Nc3cccc(Br)c3)ncnc2cn1
fold change (FC) (PC-3 [11]): 1.022

CN1CC(=O)N2[C@H](c3ccc4c(c3)OCO4)c3[nH]c4ccccc4c3C[C@@H]2C1=O
fold change (FC) (PC-3 [11]): 1.052

CC(/C=C/C(=O)NO)=C\[C@@H](C)C(=O)c1ccc(N(C)C)cc1 [TRICHOSTATIN]
fold change (FC) (PC-3 [4]): 0.268

CC/C(=C(\c1ccccc1)c1ccc(OCCN(C)C)cc1)c1ccccc1 [TAMOXIFEN]
fold change (FC) (PC-3 [7]): 1.041

COc1ccc(C2CNC(=O)C2)cc1OC1CCCC1 (configuration not stated) [ROLIPRAM]
fold change (FC) (PC-3 [9]): 1.065

NS(=O)(=O)c1ccc(-n2nc(C(F)(F)F)cc2-c2ccccc2)cc1
fold change (FC) (PC-3 [7]): 1.023

C[C@@H]1C[C@H]2[C@@H]3CCC4=CC(=O)C=C[C@]4(C)[C@@]3(F)[C@@H](O)C[C@]2(C)[C@@]1(O)C(=O)CO [DEXAMETHASONE]
fold change (FC) (PC-3 [7]): 1.127

Cc1ccc(-c2cc(C(F)(F)F)nn2-c2ccc(S(N)(=O)=O)cc2)cc1 [CELECOXIB]
fold change (FC) (PC-3 [1]): 0.902

CC1=C(/C=C/C(C)=C/C=C/C(C)=C/C(=O)O)C(C)(C)CCC1 [TRETINOIN]
fold change (FC) (PC-3 [4]): 0.969

CCCc1nc(C)c2c(=O)nc(-c3cc(S(=O)(=O)N4CCN(CC)CC4)ccc3OCC)[nH]n12
fold change (FC) (PC-3 [11]): 1.058

COC[C@H]1OC(=O)c2coc3c2[C@@]1(C)C1=C(C3=O)[C@@H]2CCC(=O)[C@@]2(C)C[C@H]1OC(C)=O [WORTMANNIN]
fold change (FC) (PC-3 [7]): 0.856

CC(C)(C)NCC(O)c1ccc(O)c(CO)c1 (configuration not stated) [ALBUTEROL]
fold change (FC) (PC-3 [5]): 0.926

CCC1(c2ccc(N)cc2)CCC(=O)NC1=O (configuration not stated) [AMINOGLUTETHIMIDE]
fold change (FC) (PC-3 [3]): 0.979

O=C1C=C2C(=CCOC2O)O1 (configuration not stated) [PATULIN]
fold change (FC) (PC-3 [1]): 0.23 | Activity [8]: Active | Activity [12]: Active | Activity [13]: Active | Activity (Cofilin-1 (Homo sapiens)): Active

Br.Cc1ccc(C(=O)Cn2c3c(sc2=N)CCCC3)cc1
fold change (FC) (PC-3 [6]): 0.424

CC[C@H](C)C(=O)O[C@H]1C[C@@H](C)C=C2C=C[C@H](C)[C@H](CC[C@@H]3C[C@@H](O)CC(=O)O3)[C@H]21 [LOVASTATIN]
fold change (FC) (PC-3 [3]): 0.25

Cn1c(=O)c2c(ncn2C)n(C)c1=O [CAFFEINE]
fold change (FC) (PC-3 [6]): 0.952

C(=C\c1ccccc1)/CN1CCN(C(c2ccccc2)c2ccccc2)CC1
Activity [8]: Active | Activity [12]: Active | Activity [13]: Active | Activity (Cofilin-1 (Homo sapiens)): Active

NS(=O)(=O)Cc1noc2ccccc12 [ZONISAMIDE]
fold change (FC) (PC-3 [4]): 1.035

C[C@]12CC[C@@H]3c4ccc(O)cc4C[C@@H](CCCCCCCCC[S+]([O-])CCCC(F)(F)C(F)(F)F)[C@H]3[C@@H]1CC[C@@H]2O (some centres not stated) [FULVESTRANT]
fold change (FC) (PC-3 [7]): 1.068

CC[C@H](CO)Nc1nc(NCc2ccccc2)c2ncn(C(C)C)c2n1 [SELICICLIB]
fold change (FC) (PC-3 [4]): 0.797

CC[C@H](C)[C@@H](CO[C@@H](Cc1ccccc1)C(=O)N[C@@H](CCS(C)(=O)=O)C(=O)OC(C)C)NC[C@@H](N)CS
fold change (FC) (PC-3 [1]): 0.719

CC(C)(C)NCC(O)c1cc(Cl)c(N)c(Cl)c1 (configuration not stated) [CLENBUTEROL]
fold change (FC) (PC-3 [5]): 0.963

OCCOCCN1CCN(C2=Nc3ccccc3Sc3ccccc32)CC1 [QUETIAPINE]
fold change (FC) (PC-3 [5]): 1.013

Cc1ccc(C)c(OCCCC(C)(C)C(=O)O)c1 [GEMFIBROZIL]
fold change (FC) (PC-3 [3]): 1.046 | Activity [10]: Active

CCCCCCCC/C=C\CCCCCCCC(=O)OC[C@@H](O)COP(=O)(O)O [LYSOPHOSPHATIDIC ACID]
fold change (FC) (PC-3 [4]): 1.018

Ic1cccc(CSc2nnc(-c3ccncc3)o2)c1
fold change (FC) (PC-3 [11]): 1.095

Cc1nc2n(c(=O)c1CCN1CCC(c3noc4cc(F)ccc34)CC1)CCCC2 [RISPERIDONE]
fold change (FC) (PC-3 [5]): 1.071

CC(=O)N1CCN(c2ccc(OCC3COC(Cn4ccnc4)(c4ccc(Cl)cc4Cl)O3)cc2)CC1 (configuration not stated) [KETOCONAZOLE]
fold change (FC) (PC-3 [3]): 1.066

Cc1onc(-c2ccccc2)c1-c1ccc(S(N)(=O)=O)cc1 [VALDECOXIB]
fold change (FC) (PC-3 [1]): 1.048

Cc1cc2c(s1)Nc1ccccc1N=C2N1CCN(C)CC1 [OLANZAPINE]
fold change (FC) (PC-3 [5]): 1.059

CCCc1nn(C)c2c(=O)[nH]c(-c3cc(S(=O)(=O)N4CCN(C)CC4)ccc3OCC)nc12
fold change (FC) (PC-3 [11]): 1.037

CC1(C)CCC2=C(O1)c1ccccc1C(=O)C2=O [LAPACHONE]
fold change (FC) (PC-3 [5]): 0.243

O=C(c1ccc(OCCN2CCCCC2)cc1)c1c(-c2ccc(O)cc2)sc2cc(O)ccc12 [RALOXIFENE]
fold change (FC) (PC-3 [7]): 1.06

Clc1ccccc1C(c1ccccc1)(c1ccccc1)n1ccnc1 [CLOTRIMAZOLE]
fold change (FC) (PC-3 [1]): 0.708 | Activity [8]: Active | Activity [12]: Active | Activity [13]: Active | Activity (Cofilin-1 (Homo sapiens)): Active

C[S+]([O-])c1ccc(-c2nc(-c3ccc(F)cc3)c(-c3ccncc3)[nH]2)cc1 (configuration not stated) [SB-203580]
fold change (FC) (PC-3 [9]): 0.721

C[C@@H](N)[C@H]1CC[C@H](C(=O)Nc2ccncc2)CC1 [Y-27632]
fold change (FC) (PC-3 [9]): 0.958
